Where two headings read alike, the source gives them in different places.
How the values were obtained:
P. falciparum K1 = assay: In vitro activity against erythrocytic stages of P. falciparum, 3H-hypoxanthine incorporation assay; assay type: cell-based; conditions: Plasmodium falciparum
Protocol: (§1) VI. Design and Results of the in vitro & in vivo Studies.
A. Drug inhibition of in vitro cultured P. falciparum parasite:[2] All in vitro assays were carried out twice independently in duplicate.In vitro activity against theerythrocytic stages of P. falciparum was determined by using a 3H-hypoxanthine incorporation assay, using the chloroquine and pyrimethamine resistant K1 strain and the standard drugs chloroquine (Sigma C6628) and artemisinin (Arteannuin, Qinghaosu; Sigma 36,159- 3). Compounds were dissolved in DMSO at 10 mg/mL and added to parasite cultures incubated in RPMI 1640 medium without hypoxanthine, supplemented with HEPES (5.94 g/L), NaHCO3 (2.1 g/L), neomycin (100U/mL), AlbumaxR (5 g/L), and washed human red cells A+ at 2.5% haematocrit (0.3% parasitaemia). Serial doubling dilutions of each drug were prepared in 96-well microtiter plates and incubated in a humidified atmosphere at 37 °C; 4% CO 2, 3% O2, 93% N2. After 48 h, 50 µLof 3H-hypoxanthine (= 0.5 µCi) was added to each well of the plate. The plates were incubated for an additional 24 h under the same conditions. The plates were then harvested with a Betaplate cell harvester (Wallac, Zurich, Switzerland), and the red blood cells were transferred onto a glass fiber filter and then washed with distilled water. The dried filters were inserted into a plastic foil with 10 mL of scintillation fluid and were counted in a Betaplate™ liquid scintillation counter (Wallac, Zurich, Switzerland); IC50values were calculated from sigmoidal inhibition curves using Microsoft Excel. […]

[1] = In vitro cytotoxicity assay in L-6 cells (Alamar Blue); conditions: rat
Protocol: as §1
A. Drug inhibition of in vitro cultured P. falciparum parasite:[2] […]
B. In vitro cytotoxicity assay: [2] Assays were performed in 96-well microtiter plates, each well containing 100 µl of RPMI 1640 medium supplemented with 1% L-glutamine (200mM) and 10% fetal bovine serum, and 4 x 10^4 L-6 cells (a primary cell line derived from rat skeletal myoblasts).
Serial drug dilutions of seven 3-fold dilution steps covering a range from 90 to 0.123 µg/mL were prepared. After 72 h of incubation the plates were inspected under an inverted microscope to assure growth of the controls and sterile conditions. 10µL of Alamar Blue was then added to each well and the plates incubated for another 2 h. Then the plates were read with a Spectramax Gemini XS microplatefluorometer (Molecular Devices Cooperation, Sunnyvale, CA, USA) using an excitation wave length of 536 nm and an emission wave length of 588 nm. Data were analysed using the microplate reader software Softmax Pro (Molecular Devices Cooperation, Sunnyvale, CA, USA).

P. falciparum = test system: P. falciparum; design: method as in PMID 23918316, PMID 23517371; conditions: cited from earlier work
[2] = K1 strain (chloroquine and pyrimethamine resistant), means of two independent assays, read-out: P. falc. EC50
[3] = L-6 cells (rat skeletal myoblasts)

Structure (SMILES)	EC50 (P. falciparum K1; [2]) [µM]	EC50 at 72 h [1, 3] [µM]	melting point	selectivity compared to L6 mammalian cells (P. falciparum; L6 vs P. falciparum) [fold]	EC50 (P. falciparum; read-out: EC50 against P. falciparum) [µM]	EC50 (P. falciparum K1; K1, read-out: P. falc. EC50) [µM]	EC50 at 72 h [1]
Cc1cc(/C=C2/SC(=N)NC2=O)c(C)n1-c1ccccc1C(F)(F)F [Compound 47]	5.8	56	285 to 290 °C	–	–	–	–
Cc1cc(/C=C2\S/C(=N\c3ccccc3)N(C)C2=O)c(C)n1-c1ccccc1 [Compound 33]	2.6	> 230	203 to 205 °C	–	–	–	–
CN1C(=O)/C(=C/c2ccn(Cc3ccccc3)c2)S/C1=N\c1ccccc1 [Compound 37]	3.9	> 240	155 to 156 °C	–	–	–	–
Cc1cc(/C=C2\S/C(=N\c3ccccc3)N(C3CCCCC3)C2=O)c(C)n1-c1cccc(C(F)(F)F)c1 [Compound 24]	1.9	> 170	–	–	–	–	–
Cc1cc(/C=C2/SC(=O)NC2=O)c(C)n1-c1ccccc1C(F)(F)F [Compound 46]	8.4	43	205 to 210 °C	–	–	–	–
CCOC(=O)C1=C(C)N/C(=C/c2cc(C)n(-c3ccccc3C(F)(F)F)c2C)C1=O [TDR32750]	–	–	–	> 2000	0.009	–	–
CN1C(=O)/C(=C/c2cnn(-c3ccccc3C(F)(F)F)c2)S/C1=N\c1ccccc1 [Compound 38]	4.6	180	–	–	–	–	–
Cc1cc(/C=C2\SC(=O)N(C)C2=O)c(C)n1-c1ccccc1 [Compound 45]	2.2	> 290	195 to 196 °C	–	–	–	–
Cc1cc(/C=C2\S/C(=N\c3ccccc3)N(C3CCCCC3)C2=O)c(C)n1-c1ccc(Br)cc1 [Compound 21, (2Z,5Z)-3-Cyclohexyl-5-((1-(4-bromophenyl)-2,5-dimethyl-1H-pyrrol-3-yl)methylene)-2-(phenylimino)thiazolidin-4-one]	0.42	> 170	243 to 244 °C	–	–	–	–
Cc1cc(/C=C2\S/C(=N\c3ccccc3)N(C3CCCCC3)C2=O)c(C)n1-c1ccc(C(F)(F)F)cc1 [Compound 23]	0.25	> 170	218 to 220 °C	–	–	–	–
Cc1cc(/C=C2\S/C(=N\c3ccccc3)N(C3CCCCC3)C2=O)c(C)n1-c1ccc(N2CCOCC2)cc1 [Compound 26]	0.09	> 170	155 to 156 °C	–	–	–	–
Cc1cc(/C=C2\S/C(=N\c3ccccc3)N(C3CCCCC3)C2=O)c(C)n1CCN1CCOCC1 [Compound 27]	0.61	71	–	–	–	–	–
Cc1cc(/C=C2\S/C(=N\c3ccccc3)N(C)C2=O)c(C)n1-c1ccc(N2CCOCC2)cc1 [Compound 35]	1.5	120	288 °C	–	–	–	–
Cc1cc(C=C2C(=O)NC(=S)NC2=O)c(C)n1-c1ccccc1C(F)(F)F [Compound 52]	–	–	> 300 °C	–	–	29	16 µM
C/N=C1\S/C(=C\c2ccn(-c3ccccc3C(F)(F)F)c2)C(=O)N1C [Compound 41]	4.7	4	54 to 55 °C	–	–	–	–
O=C1/C(=C/c2ccn(Cc3ccccc3)c2)S/C(=N\c2ccccc2)N1C1CCCCC1 [Compound 29]	1.6	> 200	68 to 70 °C	–	–	–	–
Cc1cc(/C=C2\S/C(=N\c3ccccc3)N(C3CCCCC3)C2=O)c(C)n1-c1ccccc1 [Compound 22]	0.25	> 200	198 to 199 °C	–	–	–	–

Structure (SMILES)	EC50 (P. falciparum K1; [2]) [µM]	EC50 at 72 h [1, 3] [µM]	melting point	selectivity compared to L6 mammalian cells (P. falciparum; L6 vs P. falciparum) [fold]	EC50 (P. falciparum; read-out: EC50 against P. falciparum) [µM]	EC50 (P. falciparum K1; K1, read-out: P. falc. EC50) [µM]	EC50 at 72 h [1]
C/N=C1\S/C(=C\c2cnn(-c3ccccc3C(F)(F)F)c2)C(=O)N1C [Compound 43]	3.6	34	170 to 172 °C	–	–	–	–
Cc1cc(/C=C2\S/C(=N\c3ccccc3)N(C3CCCCC3)C2=O)c(C)[nH]1 [Compound 30]	3.4	23	–	–	–	–	–
O=C1/C(=C/c2ccn(-c3ccccc3C(F)(F)F)c2)S/C(=N\c2ccccc2)N1C1CCCCC1 [Compound 28]	2.3	> 180	145 to 147 °C	–	–	–	–
Cc1cc(/C=C2\S/C(=N\c3ccccc3)N(C3CCCCC3)C2=O)c(C)n1-c1ccccc1C(F)(F)F [Compound 25]	0.78	> 170	125 to 127 °C	–	–	–	–
Cc1cc(/C=C2\S/C(=N\c3ccccc3)N(C)C2=O)c(C)n1CCN1CCOCC1 [Compound 36]	0.99	> 210	–	–	–	–	–
Cc1cc(/C=C2\NC(=O)NC2=O)c(C)n1-c1ccccc1C(F)(F)F [Compound 49]	13	84	265 to 267 °C	–	–	–	–
Cc1cc(/C=C2/SC(=S)NC2=O)c(C)n1-c1ccccc1C(F)(F)F [Compound 48]	21	9	255 to 258 °C	–	–	–	–
O=C1/C(=C/c2cnn(-c3ccccc3C(F)(F)F)c2)S/C(=N\c2ccccc2)N1C1CCCCC1 [Compound 32]	1.9	> 180	–	–	–	–	–
C/N=C1\S/C(=C\c2cc(C)n(-c3ccc(N4CCOCC4)cc3)c2C)C(=O)N1C [Compound 39]	> 13	> 220	333 to 334 °C	–	–	–	–
Cc1cc(/C=C2\S/C(=N\c3ccccc3)N(C3CCCCC3)C2=O)c(C)n1C [Compound 31]	1.9	> 230	184 to 185 °C	–	–	–	–
Cc1cc(C=C2C(=O)NC(=O)NC2=O)c(C)n1-c1ccccc1C(F)(F)F [Compound 51]	–	–	> 300 °C	–	–	16	120 µM
COc1cc([C@@H]2c3cc4c(cc3[C@H](O)[C@H]3COC(=O)[C@H]23)OCO4)cc(OC)c1OC [podophyllotoxin, reference compound]	–	–	–	–	–	–	5 ng/mL
CC1=CC(/C=C2\S/C(=N\c3ccccc3)N(C)C2=O)=C(C)C1c1ccccc1C(F)(F)F (stereo not shown) [Compound 34]	2.2	> 200	–	–	–	–	–
Cc1cc(/C=C2\NC(=O)NC2=O)c(C)n1-c1ccccc1 [Compound 50]	11	> 320	267 to 270 °C (dec.)	–	–	–	–
C/N=C1\S/C(=C\c2cc(C)n(CCN3CCOCC3)c2C)C(=O)N1C [Compound 40]	5.6	78	–	–	–	–	–
Cc1cc(/C=C2\SC(=O)NC2=O)c(C)n1-c1ccccc1C(F)(F)F [Compound 44]	1.9	64	234 to 235 °C	–	–	–	–
C/N=C1\S/C(=C\c2ccn(Cc3ccccc3)c2)C(=O)N1C [Compound 42]	9.5	> 290	128 to 130 °C	–	–	–	–

Source: paper PMC4607724, “Discovery and optimisation studies of antimalarial phenotypic hits” (European Journal of Medicinal Chemistry, 2015)
